# From patent US10973810B2, “Methods for the treatment of neurological disorders” (Yumanity Therapeutics, Inc., priority 2017, dated 2021)
# System: human iPSC-derived neurons harboring the alpha-synuclein A53T mutation
# Assay: Neuron survival assay, human iPSC-derived neurons harboring the alpha-synuclein A53T mutation
# Format: cell-based
# Settings: 100 nM and 30 nM; relative to DMSO controls in A53T neurons; 8 to 10 d
# Description: FIG. 15 is a graph showing that SCD inhibition with CAY10566 reduced the cumulative risk of death in human iPSC-derived neurons harboring the alpha-synuclein A53T mutation. Human iPSC cells harboring the alpha-synuclein A53T mutation or an isogenic control line in which the mutation was corrected to wild-type were trans-differentiated into neurons. Single cells were evaluated for survival (based on overall morphology) over the course of the 192 hour study. Cell survival data was analyzed by a non-parametric Kaplan-Meier procedure to estimate survival probability, which is shown as the cumulative risk of cell death. (HR, hazard ratio; P, p value (*<0.05, ns=not significant (>0.05)); CI, confidence interval; N, number of neurons tracked). […]
# Transfected neuronal cultures were imaged at 12-24 h intervals for the indicated number of days by robotic microscopy. Fluorescence images were acquired with a Nikon Eclipse Ti microscope equipped with a motorized stage, 20× extra-long working distance (ELWD) objective, and an Andor Zyla cMOS camera. […] Images were processed and analyzed with custom-made scripts in R and ImageJ software. The lifetimes of individual neurons were determined by tracking fluorescently-labeled neurons in ImageJ. Neuronal death was determined to occur upon incidence of RFP signal loss or rupture of cell body. […]
structure (smiles),measurement,value
Cc1nnc(-c2ccc(N3CCC(Oc4cc(F)ccc4Cl)CC3)nn2)o1 [CAY10566],risk of neuron death,significantly reduced
